Laboratory results taken from BindingDB's records for doi:10.1016/j.bmcl.2017.04.030 (Takeda Pharmaceutical, 2017).
Numbered stars: 1 amine (or outer) side, 2 acyl side, 3 side chain; on linkers, the order of the positions; unused ones are H or OH. Bridge positions count the residues as written; N and C are the ends. Square brackets hold non-standard residues; d marks the D form. Peptide text beside a SMILES is read from it. tBuAla = CC(C)(C)C[C@H](N)C(=O)O; X1 = O=C(CCC[*:2])[*:1]

Target: T1, Oxytocin receptor (Homo sapiens, UniProt P30559)
T1 sequence (P30559 whole entry): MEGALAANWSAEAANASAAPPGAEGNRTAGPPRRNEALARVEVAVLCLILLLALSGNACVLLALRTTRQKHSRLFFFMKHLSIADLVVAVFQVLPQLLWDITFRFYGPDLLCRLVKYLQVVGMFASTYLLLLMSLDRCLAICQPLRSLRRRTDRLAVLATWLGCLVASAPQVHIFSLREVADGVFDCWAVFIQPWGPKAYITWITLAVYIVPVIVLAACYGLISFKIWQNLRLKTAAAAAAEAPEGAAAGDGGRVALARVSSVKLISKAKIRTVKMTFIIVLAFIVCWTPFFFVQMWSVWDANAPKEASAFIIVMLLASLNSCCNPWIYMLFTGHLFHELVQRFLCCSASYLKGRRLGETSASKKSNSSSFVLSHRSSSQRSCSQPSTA
Assay: Agonist activity at human OTR expressed in CHO cells assessed as calcium mobilization measured after 30 mins by Fluo-4-AM dye based FLIPR assay

Row | Compound | EC50
1 | CC[C@H](C)[C@@H]1NC(=O)[C@H](Cc2ccc(O)cc2)NC(=O)CCCSC[C@@H](C(=O)N2CCC[C@H]2C(=O)N[C@@H](CC(C)(C)C)C(=O)NCC(N)=O)NC(=O)[C@H](CC(N)=O)NC(=O)[C@H](CCC(N)=O)NC1=O (YIQNCP[tBuAla]G-NH2; linker N-5 via X1) | 7 pM
2 | CC[C@H](C)[C@@H]1NC(=O)[C@H](Cc2ccc(O)cc2)NC(=O)CCSSC[C@@H](C(=O)N2CCC[C@H]2C(=O)N[C@@H](CC(C)C)C(=O)NNC(N)=O)NC(=O)[C@H](CC(N)=O)NC(=O)[C@H](CCC(N)=O)NC1=O | 8 pM
